Laboratory results as given in article PMC4267622, “Pin1-mediated Sp1 phosphorylation by CDK1 increases Sp1 stability and decreases its DNA-binding activity during mitosis” (Nucleic Acids Research, 2014).
One block for each molecule: values may come before it.

Legend:
CDK1/cyclin B1 = assay: In vitro CDK1/cyclin B1 kinase assay; type: biochemical; conditions: 15 min; for phosphorylation by CDK1 (as substrate): 1 μg Sp1 protein, 50 ng CDK1/cyclin B1, 30°C; for effect on CDK1-mediated Sp1 phosphorylation: substrate GST-Sp1 (619–785), [γ-^32P] ATP, 30°C
Procedure: For the in vitro phosphorylation analysis, the GST-Sp1(619-785), GST-Sp1(619-785)-T739A, GST-Sp1(619-785)-T739D, GST-Sp1(619-785)-P6, GST-Sp1(619-785)-Z12, GST-Sp1(619-715) or GST-Sp1(619-740) were purified from Escherichia coli BL21 (DE3). These different Sp1 proteins and active CDK1/cyclin B1 (New England Biolabs, Beverly, MA) were used to examine Sp1 phosphorylation in vitro. Each reaction (20 μl) contained 1 μg of purified Sp1, 50 ng of active CDK1/cyclin B1, 2 μCi of [γ-^32P] ATP (GE Healthcare Life Sciences), 1 mM ATP (New England Biolabs) and […] of 10× kinase buffer containing 500 mM HEPES pH 7.4, 10 mM MgCl2, 1 mM EGTA and 1 mM dithiothreitol. The phosphorylation reactions were incubated at 30°C for 15 min. After the incubation, one-half of the reaction was added to 10 μl of 2×electrophoresis sample buffer, which was then heated to 95°C for 5 min. Proteins in the mixtures were immediately separated using SDS-polyacrylamide gel electrophoresis (PAGE).

Pin1 [1] = molecular target: Pin1 (UniProt Q13526); assay: isothermal titration calorimetry; conditions: reference: Thr739-Sp1 peptide (unphosphorylated); sites T739
[2] = system: Sp1-binding probe of p21^WAF1/CIP1 promoter; assay: DNA affinity precipitation assay (DAPA); conditions: 4°C, 1 h
Procedure: Cell lysate incubated with 1 μg of binding probes in 500 μl binding of buffer (2 mM MgCl2, 60 mM KCl, 20 mM Tris-HCl pH 7.8, 5% glycerol, 0.5 mM EDTA and 0.02% NP-40). After incubation for 1 h at 4°C, the mixture was incubated with 30 μl of streptavidin-agarose beads (GE Healthcare Life Sciences) for 1 h at 4°C. The mixture was washed three times by binding buffer. The proteins in the beads were eluted by 2X sample buffer and analysed by SDS-PAGE and immunoblotting. The Sp1-binding probe 5′-[…]-3′, localized from −82 to −50 bp within the promoter of p21^WAF1/CIP1, was biotinylated at 5′ termini and then annealed with complementary strands.

Pin1 [3] = molecular target: Pin1 (UniProt Q13526); assay: co-IP with anti-Pin1, Sp1 blot; conditions: reference: GFP-Sp1 wild type; sites T739
Pin1 [4] = assay: Pin1 interaction of Sp1 mutants (anti-Pin1 immunoprecipitation / pull-down); type: binding; conditions: mitotic HeLa lysates / pull-down
Procedure: Cell lysates were prepared by using mRIPA buffer (50 mM Tris-HCl, pH 7.8, 150 mM NaCl, 5 mM ethylenediaminetetraacetic acid (EDTA), 0.1% Triton-X100, 0.05% NP-40). The lysates were incubated with anti-Sp1 (1:500), anti-CDK1 (1:200), anti-Pin1 (1:250), anti-HA tag (1:250), or anti-GFP tag (1:200) antibodies at 4°C for 1 h. After 1 h incubation, the mixture was incubated with Protein A or G Sepharose agarose beads at 4°C for 1 h. The beads were collected and washed three times by mRIPA buffer. The beads were added 2X electrophoresis sample buffer and analysed by immunoblotting.
(§1) The mixture was incubated with shaking for 1 h at 4°C. The beads were washed three times in NETN buffer and added to the interphase or mitotic cell extract. The reaction mixture was incubated on ice for 1 h. The beads were then washed in NETN buffer. Proteins were eluted by sample buffer and separated by SDS- PAGE.

[5] = molecular target: Pin1 (purified, used in ITC) (UniProt Q13526); assay: ITC; Sp1 peptide (900 mM [sic]) titrated into Pin1 (60 mM [sic]) in the cell; 10 mM HEPES pH 7.5, 100 mM NaCl, 1 mM DTT; 25°C; MicroCal iTC200
mitotic Sp1 = assay: GST-Pin1 pull-down with HeLa lysates; type: binding; conditions: mitotic HeLa lysate; for interaction with phospho-Sp1(T739): antibody against phospho-Sp1 (T739)
Procedure: as §1

JNK1 = assay: In vitro kinase assay with JNK1; type: biochemical; conditions: substrate GST-Sp1(619-785)
Pin1 [6] = assay: Co-localization of Sp1 and Pin1 by immunofluorescence in sub-mitotic stages; type: cell-based; conditions: HeLa
Procedure: The cells were fixed with 4% paraformaldehyde (Sigma-Aldrich) in PBS according to a method described previously ([3]). Immunostaining was conducted with primary antibodies such as anti-Sp1, anti-GFP tag (Santa Cruz Biotechnology, Santa Cruz, CA), or anti-Pin1 (Calbiochem, San Diego, CA) antibodies. The cells were then treated with Alexa Fluor 488-conjugated goat anti-mouse or rabbit immunoglobulin G (IgG) and Alexa Fluor 568-conjugated goat anti-mouse or rabbit IgG polyclonal antibodies (Jackson ImmunoResearch Laboratories Inc., West Grove, PA). Finally, the cells were mounted in 90% glycerol containing 4'-6-diamidino-2-phenylindole (DAPI) (Invitrogen), and examined using a confocal laser-scanning microscope (FluoView^TM FV 1000; Olympus, Melville, NY) or immunofluorescence microscope (Personal DV Applied Precision, Issaquah, WA). The images were analysed with softWoRx software (Applied Precision Inc.).

HeLa cells = assay: Flow cytometry with PI staining (cell cycle); type: cell-based; conditions: nocodazole 16 h
Procedure: The cells washed by cold PBS and then fixed in 70% alcohol or 4% paraformaldehyde at 4°C for 2 h. After fixation, the cells washed by cold PBS and treated with 0.1% TritonX-100, 10μg/ml RNase and 50 μg/ml propidium iodide for 1 h. The cells were analysed by flow cytometer (Cell Lab Quanta™ SC; Beckman Coulter or FACSCalibur; BD Biosciences).

GST-Sp1(619-785) = GST-Sp1(619-785) (UniProt P08047 619-785); assay: DAPA (streptavidin pull-down); DAPA: 1 ug probe in 500 ul 20 mM Tris-HCl pH 7.8, 60 mM KCl, 2 mM MgCl2, 0.5 mM EDTA, 5% glycerol, 0.02% NP-40; 1 h at 4 C, then streptavidin-agarose 1 h at 4 C; conditions: protein: recombinant; tags: GST; label: 5' biotin on S1 strand; blunt
GST-Sp1(619-785)-T739D = GST-Sp1(619-785)-T739D (UniProt P08047 619-785, T739D); assay: DAPA (streptavidin pull-down); no significant difference from GST-Sp1(619-785); DAPA: 1 ug probe in 500 ul 20 mM Tris-HCl pH 7.8, 60 mM KCl, 2 mM MgCl2, 0.5 mM EDTA, 5% glycerol, 0.02% NP-40; 1 h at 4 C, then streptavidin-agarose 1 h at 4 C; conditions: protein: recombinant; tags: GST; label: 5' biotin on S1 strand; blunt

phosphorylation by CDK1 (as substrate) (CDK1/cyclin B1): No signal was detected
Molecule: GST-Sp1 (619–715): truncated Sp1, amino acids 619–715

other: Ka (Pin1 [1]): 7.4 M⁻¹
Molecule: Sp1 735-745 (from UniProt P08047) Thr739(p)-Sp1 peptide

Molecule: GST-Sp1 (619–740): truncated Sp1, C-terminus (741–785) ablated
phosphorylation by CDK1 (as substrate) (CDK1/cyclin B1): an increased phosphorylation signal was obtained

Molecule: GST-Sp1 (619–785): truncated Sp1, wild-type C-terminal region
phosphorylation by CDK1 (as substrate) (CDK1/cyclin B1): phosphorylated by CDK1, albeit to a lesser extent

Molecule: GST-Sp1 (619–785)-T739D: mimic phosphorylation form of GST-Sp1 (619–785)
DNA-binding signal ([2]; purified GST-Sp1 proteins, four independent experiments): No significant difference in the DNA-binding signal

binding against the reference (Pin1 [3]): weaker
Molecule: Sp1 (from UniProt P08047) GFP-Sp1 T739A

Molecule: Sp1-T739D: mimic phosphorylated Sp1
interaction with Pin1 (Pin1 [4]): increased interaction with GST-Pin1

Ka [5]: 7400 M⁻¹
Kd [5]: 50 µM
dH [5]: -6.8 kcal/mol
stoichiometry N [5]: 0.93
Molecule: Thr739(p)-Sp1 peptide (from UniProt P08047 735-745)

Molecule: Pin1-W34A: Pin1 mutated in the recognition domain
effect on CDK1-mediated Sp1 phosphorylation (CDK1/cyclin B1): but not Pin1-W34A and Pin1-WW, increased the signal
interaction with mitotic Sp1 (mitotic Sp1): but not Pin1-W34A, interacted with mitotic Sp1

Molecule: Sp1-T739A: phosphorylation site mutated Sp1
interaction with Pin1 (Pin1 [4]): decreased interaction with Pin1

effect on JNK1 phosphorylation of Sp1 (JNK1): this phosphorylation remained unaffected
Molecule: Pin1: recombinant wild-type Pin1, peptidyl-prolyl isomerase
effect on CDK1-mediated Sp1 phosphorylation (CDK1/cyclin B1): increased the signal of CDK1-mediated Sp1 phosphorylation in a dose dependent manner
interaction with mitotic Sp1 (mitotic Sp1): interacted with mitotic Sp1
interaction with phospho-Sp1(T739) (mitotic Sp1): interacted with phospho-Sp1(T739)

Molecule: GST-WW: recognition motif (WW domain) of Pin1
effect on CDK1-mediated Sp1 phosphorylation (CDK1/cyclin B1): but not Pin1-W34A and Pin1-WW, increased the signal
interaction with phospho-Sp1(T739) (mitotic Sp1): interacted with phospho-Sp1(T739)

Molecule: Sp1: transcription factor Sp1; endogenous or GFP-Sp1-WT expressed in HeLa cells
Sp1 interaction/co-localization with Pin1 (Pin1 [6]; anaphase (within 20–60 min of nocodazole release)): 93%
Sp1 interaction/co-localization with Pin1 (Pin1 [6]; metaphase (within 20–60 min of nocodazole release)): 91.4%
Sp1 interaction/co-localization with Pin1 (Pin1 [6]; prophase (within 20 min of nocodazole release)): 81.3%

Molecule: Sp1-4A: Sp1 mutant S720A, T723A, T737A and T739A
cells entered mitosis (HeLa cells): 62%
DNA-binding activity to the p21^CIP/WAP promoter ([2]; mitotic extract of HeLa cells, three independent experiments): increased its DNA-binding activity to the p21^CIP/WAP promoter

phosphorylation by CDK1 (as substrate) (CDK1/cyclin B1): No signal was detected
Molecule: GST-Sp1 (619–785)-T739A: T739A mutant of GST-Sp1 (619–785)

B1: p21WAF1/CIP1 promoter Sp1 probe (-82 to -50) (dsDNA)
DNA 1: CCCGCCTCCTTGAGGCGGGCCCGGGCGGGGCGG
DNA 2: CCGCCCCGCCCGGGCCCGCCTCAAGGAGGCGGG
binding result (GST-Sp1(619-785)): binds
binding result (GST-Sp1(619-785)-T739D): binds
